In patent US20220267864A1, “THERAPEUTIC, DIAGNOSTIC, AND PROGNOSTIC METHODS FOR CANCER” (Genentech, Inc., priority 2014, published 2022):

System: UMUC-10 cell line
Experiment: Cell viability (CELLTITER-GLO) of bladder cancer cell line treated with erlotinib
Type: cell-based
Details: UMUC-10 bladder cancer cell line; 72 hours; 3-fold dilution series starting with a 5 uM dose; FIG. 11G
Description: Bladder cancer cell lines were obtained from the American Type Culture Collection (ATCC, Manassas, Va.) or from the Deutsche Sammlung von Mikroorganismen and Zellkulturen GmbH (DSMZ, Braunschweig, Germany). Cell lines were archived at an early passage in the Genentech cell bank and authenticated either by a multiplex short tandem repeat assay or as previously described (O'Brien et al. Clin. Cancer Res. 16(14): 3670-3683, 2010). All cell lines were maintained in RPMI 1640 or DMEM supplemented with 10% fetal bovine serum (Sigma, St. Louis, Mo.), nonessential amino acids, and 2 mmol/L L-glutamine.
Details of its structure, selectivity, and biological properties have been previously described (Stamos et al. J. Biol. Chem. 277(48): 46265-46272, 2002). Cell viability studies were carried out as previously described (O'Brien et al. Clin. Cancer Res. 16(14): 3670-3683, 2010). Cells were plated in quadruplicate at a density of 2,500 cells per well in 384-well plates in normal growth medium and allowed to adhere overnight. […] Cell viability was measured 72 hours later using the […]-GLO® Luminescent Cell Viability Assay (Promega, Madison, Wis.). The percent viability at each concentration was calculated compared to the control treated only with DMSO.

C#Cc1cccc(Nc2ncnc3cc(OCCOC)c(OCCOC)cc23)c1 [erlotinib, [6,7-bis(2-methoxyethoxy)-4-quinazolin-4-yl]-(3-ethynylphenyl) amine]
growth inhibition (GI): > 25%
